The text below walks through data of patent US11999727B2 (Tango Therapeutics, Inc., priority 2020, dated 2024).

The target of assay [1] is T1, PRMT5 (Homo sapiens, UniProt O14744).
T1 construct: purchased Viva (custom protein)
The assay is described as follows: PRMT5 biochemical IC50 assay with no cofactor. The following applies: PRMT5, no cofactor. From the text: Table 1 indicates IC50 values (μM) against PRMT5 for exemplary compounds in the presence of SAM as cofactor, with no cofactor, and with MTA as cofactor, respectively (columns 4-6). […] Ki values can be calculated from the IC50 values as described in the Examples section. As detailed in the Examples section, for the assay performed in the presence of SAM, IC50=Ki×1.5 (Ki=IC50/1.5).

In assay [2] the test system is HAP1 MTAP-deleted cell line. Description: Viability assay, MTAP-deleted cell line. The assay is classed as cell-based. Particulars: Homo sapiens, read-out: HAP1 MTAP deleted viability. The source says: Table 1 additionally indicates IC50 values in a viability assay for the MTAP-deleted cell line (column 10), indicating the effect of treatment with compound on cell survival.

The target of assay [3] is T1, PRMT5. The assay is described as follows: PRMT5 biochemical IC50 assay with SAM as cofactor. Particulars: PRMT5, SAM as cofactor; read-out: SAM IC50.
Assay [4] relates to HAP1 MTAP-deleted cell line. Description: SDMA in-cell western assay, HAP1 MTAP-deleted. The assay is classed as cell-based. The following applies: for IC50: Homo sapiens, HAP1, SDMA in-cell western, HAP1 MTAP-deleted; for MTAP intact/deleted ratio: SDMA in-cell western. The gist of the method:
(§1)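 MTAP-null vs endogenous-MTAP HAP1 isogenic cells; in-cell western SDMA readout; IC50 per line.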

Assay [5] deals with T1, PRMT5. The assay is described as follows: PRMT5 biochemical IC50 assay with MTA as cofactor. Particulars: PRMT5, MTA as cofactor; read-out: MTA IC50.
Assay [6] deals with HAP1 MTAP-intact cell line. Description: SDMA in-cell western assay, HAP1 MTAP-intact. Format: cell-based. Particulars: Homo sapiens, HAP1, SDMA in-cell western, HAP1 MTAP-intact; read-out: MTAP HAP1 intact IC50. The gist of the method:
as §1

Setting [7] is: HAP1, viability assay, MTAP-deleted cell line.
[8] abbreviates: read-out: HAP1 MTAP deleted IC50.
[9] abbreviates: IC50 ratio HAP1 MTAP-intact / HAP1 MTAP-deleted.
Where [10] appears, read: read-out: HAP 1 MTAP deleted IC50.
Where [11] appears, read: HAP1, viability assay, HAP1 MTAP-deleted.
[12] abbreviates: HAP1, viability IC50, MTAP-deleted cell line.

T1 sequence (O14744 whole entry): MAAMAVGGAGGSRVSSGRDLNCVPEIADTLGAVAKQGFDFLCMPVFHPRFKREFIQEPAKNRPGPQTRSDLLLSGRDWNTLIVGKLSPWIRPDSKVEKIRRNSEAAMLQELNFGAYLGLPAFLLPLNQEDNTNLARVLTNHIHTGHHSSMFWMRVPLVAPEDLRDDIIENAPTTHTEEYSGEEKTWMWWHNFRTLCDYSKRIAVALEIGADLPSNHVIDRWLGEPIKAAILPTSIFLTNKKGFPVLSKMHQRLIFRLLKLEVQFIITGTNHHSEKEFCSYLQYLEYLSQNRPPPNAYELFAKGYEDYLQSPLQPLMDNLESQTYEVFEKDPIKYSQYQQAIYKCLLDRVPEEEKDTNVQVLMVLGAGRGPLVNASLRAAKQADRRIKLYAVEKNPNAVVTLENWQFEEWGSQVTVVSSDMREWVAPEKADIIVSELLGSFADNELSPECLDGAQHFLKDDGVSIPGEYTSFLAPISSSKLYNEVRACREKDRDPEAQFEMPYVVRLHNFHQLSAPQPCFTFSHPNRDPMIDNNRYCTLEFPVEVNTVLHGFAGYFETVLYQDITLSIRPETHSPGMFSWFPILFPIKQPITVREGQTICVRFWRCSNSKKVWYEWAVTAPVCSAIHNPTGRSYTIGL
T1 sequence (Q9BQA1 whole entry partner): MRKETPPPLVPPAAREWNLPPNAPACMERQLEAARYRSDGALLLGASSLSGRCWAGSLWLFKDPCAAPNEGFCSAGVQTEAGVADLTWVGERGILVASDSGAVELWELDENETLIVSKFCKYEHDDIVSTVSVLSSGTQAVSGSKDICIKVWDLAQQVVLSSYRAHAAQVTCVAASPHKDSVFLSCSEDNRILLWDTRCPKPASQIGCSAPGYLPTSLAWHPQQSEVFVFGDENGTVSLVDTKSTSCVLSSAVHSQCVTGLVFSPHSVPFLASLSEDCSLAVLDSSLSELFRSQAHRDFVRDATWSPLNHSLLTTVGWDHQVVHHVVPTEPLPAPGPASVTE

Turning to `CNc1ccc([C@@H]2CC[C@@H](C)CN2C(=O)C(=O)Nc2cnc(OC)c(C(N)=O)c2)cn1` (single isomer, unassigned) [Compound 448], the IC50 is over 0.5 µM at PRMT5 [1] (read-out: No Cofactor/rel IC50); over 10 µM in assay [2] (setting [7]); over 0.5 µM on PRMT5 [3]; over 1 µM in assay [4] (setting [8]); over 0.5 µM at PRMT5 [5]; over 1 µM in assay [6]. Moreover, the MTAP intact/deleted ratio result in assay [4] (setting [9]) was “C (an IC50 ratio of less than 3 fold)”.

Regarding `Cc1cncc(NC(=O)C(=O)N2CCCCC2c2cccc(N(C)C)c2)c1` (centres unmarked) [Compound 15, 2-(2-(3-(dimethylamino)phenyl)piperidin-1-yl)-N-(5-methylpyridin-3-yl)-2-oxoacetamide], the IC50 on PRMT5 [1] (read-out: No Cofactor/ rel IC50) was over 0.5 µM; in assay [2] (setting [7]) it was over 10 µM; on PRMT5 [3], over 0.5 µM; in assay [4] (setting [10]) it was over 1 µM; on PRMT5 [5], 0.05 to 0.5 µM; in assay [6], over 1 µM. Also, in assay [4] (setting [9]), the “MTAP intact/deleted ratio” value is reported as “C (an IC50 ratio of less than 3 fold)”.

With `C[C@@H]1CC[C@@H](c2ccc(N)nc2)N(C(=O)C(=O)Nc2cncc(C(N)=O)c2)C1` (single isomer, unassigned) [Compound 492], the IC50 was under 0.05 µM at PRMT5 [1] (read-out: No Cofactor/rel IC50); 1 to 10 µM in assay [2] (setting [7]); 0.05 to 0.5 µM at PRMT5 [3]; under 0.1 µM in assay [4] (setting [8]); under 0.05 µM at PRMT5 [5]; over 1 µM in assay [6]. The MTAP intact/deleted ratio entry in assay [4] (setting [9]) was “A (an IC50 ratio greater than or equal to 10 fold)”.

Consider `C[C@@H]1CC[C@@H](c2ccc(Cl)c(N)c2)N(C(=O)C(=O)Nc2cncc(C(N)=O)c2)C1` (racemic) [Compound 280, rac-5-{2-[(2R,5S)-2-(3-Amino-4-chlorophenyl)-5-methylpiperidin-1-yl]-2-oxoacetamido}pyridine-3-carboxamide], for which the IC50 is 0.05 to 0.5 µM on PRMT5 [1] (read-out: No Cofactor/rel IC50); 1 to 10 µM in assay [2] (setting [7]); 0.05 to 0.5 µM at PRMT5 [3]; 0.1 to 1 µM in assay [4] (setting [8]); under 0.05 µM at PRMT5 [5]; over 1 µM in assay [6]. Further, in assay [4] (setting [9]), the MTAP intact/deleted ratio entry is listed as “A (an IC50 ratio greater than or equal to 10 fold)”.

For the compound `Cc1cc(NC(=O)C(=O)N2C[C@@H](C)CC[C@@H]2c2ccc(N)nc2)cnc1N` (single isomer, unassigned) [Compound 860], the IC50 at PRMT5 [1] (read-out: No Cofactor/rel IC50) was over 0.5 µM; in assay [2] (setting [11]), over 10 µM; at PRMT5 [3], over 0.5 µM; in assay [4] (setting [8]), over 1 µM; on PRMT5 [5], over 0.5 µM; in assay [6], over 1 µM. Also, the MTAP intact/deleted ratio result in assay [4] (setting [9]) was “B (an IC50 ratio greater than or equal to 3 fold but lower than 10 fold)”.

For `C[C@@H]1CC[C@@H](c2ccc3ccoc3c2)N(C(=O)C(=O)Nc2cncc(C(N)=O)c2)C1` (racemic) [Compound 241, rac-5-{2-[(2R,5S)-2-(1-Benzofuran-6-yl)-5-methylpiperidin-1-yl]-2-oxoacetamido}pyridine-3-carboxamide], the IC50 is 0.05 to 0.5 µM at PRMT5 [1] (read-out: No Cofactor/rel IC50); 1 to 10 µM in assay [2] (setting [7]); 0.05 to 0.5 µM at PRMT5 [3]; under 0.1 µM in assay [4] (setting [8]); under 0.05 µM on PRMT5 [5]; over 1 µM in assay [6]. The MTAP intact/deleted ratio entry in assay [4] (setting [9]) was “A (an IC50 ratio greater than or equal to 10 fold)”.

For `Cc1cc(NC(=O)C(=O)N2C[C@H](C(F)(F)F)CC[C@H]2c2ccccc2)cnc1N` (racemic) [Compound 177, rac-N-(6-amino-5-methylpyridin-3-yl)-2-oxo-2-((2R,5S)-2-phenyl-5-(trifluoromethyl)piperidin-1-yl)acetamide], the IC50 on PRMT5 [1] (read-out: No Cofactor/rel IC50) was 0.05 to 0.5 µM; in assay [2] (setting [7]), over 10 µM; at PRMT5 [3] it was 0.05 to 0.5 µM; in assay [4] (setting [8]), over 1 µM; on PRMT5 [5] it was 0.05 to 0.5 µM; in assay [6], over 1 µM. Besides, the MTAP intact/deleted ratio result in assay [4] (setting [9]) is listed as “B (an IC50 ratio greater than or equal to 3 fold but lower than 10 fold)”.

As for `C[C@@H]1CC[C@@H](c2ccc(S(N)(=O)=O)cc2)N(C(=O)C(=O)Nc2cncc(C(N)=O)c2)C1` (single isomer, unassigned) [Compound 725], the IC50 was 0.05 to 0.5 µM on PRMT5 [1] (read-out: No Cofactor/rel IC50); over 10 µM in assay [2] (setting [11]); 0.05 to 0.5 µM at PRMT5 [3]; over 1 µM in assay [4] (setting [8]); under 0.05 µM on PRMT5 [5]; over 1 µM in assay [6]. Also, the MTAP intact/deleted ratio entry in assay [4] (setting [9]) is listed as “C (an IC50 ratio of less than 3 fold)”.

As to `C[C@H]1CC[C@H](c2ccc3sc(C4CCN(C)CC4)nc3c2)N(C(=O)C(=O)Nc2cnc(N)c(C(F)(F)F)c2)C1` [Compound 1117, N-(6-amino-5-(trifluoromethyl)pyridin-3-yl)-2-((2R,5S)-5-methyl-2-(2-(1-methylpiperidin-4-yl)benzo[d]thiazol-5-yl)piperidin-1-yl)-2-oxoacetamide], the IC50 was under 0.05 µM at PRMT5 [1] (read-out: No Cofactor/rel IC50); under 1 µM in assay [2] (setting [7]); under 0.05 µM on PRMT5 [3]; under 0.1 µM in assay [4] (setting [8]); under 0.05 µM at PRMT5 [5]; 0.1 to 1 µM in assay [6]. Further, the MTAP intact/deleted ratio entry in assay [4] (IC50 ratio HAP1 MTAP-intact vs HAP1 MTAP-deleted) is “A (an IC50 ratio greater than or equal to 10 fold)”.

For `Cc1cc(NC(=O)C(=O)N2C[C@H](C)CC[C@H]2c2ccc3c(=O)[nH]ccc3c2)cnc1N` (single isomer, unassigned) [Compound 953], the IC50 is over 0.5 µM at PRMT5 [1] (read-out: No Cofactor/rel IC50); over 10 µM in assay [2] (setting [7]); over 0.5 µM at PRMT5 [3]; 0.1 to 1 µM in assay [4] (setting [10]); 0.05 to 0.5 µM on PRMT5 [5]; over 1 µM in assay [6]. Further, the MTAP intact/deleted ratio result in assay [4] (setting [9]) is reported as “A (an IC50 ratio greater than or equal to 10 fold)”.

On to `COc1cc(NC(=O)C(=O)N2C[C@@H](C)CC[C@@H]2c2ccc(F)cc2)cnc1N` [Compound 979, N-(6-amino-5-methoxy-3-pyridyl)-2-[(2R,5S)-2-(4-fluorophenyl)-5-methyl-1-piperidyl]-2-oxo-acetamide], for which the IC50 on PRMT5 [1] (read-out: No Cofactor/rel IC50) is 0.05 to 0.5 µM; in assay [2] (setting [7]) it was 1 to 10 µM; at PRMT5 [3], 0.05 to 0.5 µM; in assay [4] (setting [10]) it was 0.1 to 1 µM; on PRMT5 [5] it was under 0.05 µM; in assay [6] it was over 1 µM. For the same compound, the MTAP intact/deleted ratio result in assay [4] (setting [9]) is on record as “A (an IC50 ratio greater than or equal to 10 fold)”.

For the compound `Cc1c(NC(=O)C(=O)N2C[C@H](C)CC[C@H]2c2ccc(O)cc2)cnc(N)c1C` (single isomer, unassigned) [Compound 391], the IC50 on PRMT5 [1] (read-out: No Cofactor/rel IC50) was over 0.5 µM; in assay [2] (setting [7]), over 10 µM; at PRMT5 [3] it was over 0.5 µM; in assay [4] (setting [8]), over 1 µM; at PRMT5 [5] it was over 0.5 µM; in assay [6] it was over 1 µM. Besides, in assay [4] (setting [9]), the MTAP intact/deleted ratio result is “C (an IC50 ratio of less than 3 fold)”.

Consider `COc1cc([C@H]2CC[C@H](C)CN2C(=O)C(=O)Nc2cnc(N)c(C)c2)ccn1` (single isomer, unassigned) [Compound 538], for which the IC50 at PRMT5 [1] (read-out: No Cofactor/rel IC50) is over 0.5 µM; in assay [2] (setting [12]), over 10 µM; at PRMT5 [3], over 0.5 µM; in assay [4] (setting [10]) it was over 1 µM; on PRMT5 [5], over 0.5 µM; in assay [6], over 1 µM. For the same compound, the MTAP intact/deleted ratio result in assay [4] (setting [9]) is reported as “B (an IC50 ratio greater than or equal to 3 fold but lower than 10 fold)”.

Regarding `C[C@H]1CC[C@H](c2cc(F)cc(Cl)c2)N(C(=O)C(=O)Nc2cncc(C(N)=O)c2)C1` (single isomer, unassigned) [Compound 615], the IC50 was 0.05 to 0.5 µM on PRMT5 [1] (read-out: No Cofactor/rel IC50); 1 to 10 µM in assay [2] (setting [12]); 0.05 to 0.5 µM at PRMT5 [3]; under 0.1 µM in assay [4] (setting [10]); under 0.05 µM on PRMT5 [5]; over 1 µM in assay [6]. In addition, the MTAP intact/deleted ratio entry in assay [4] (setting [9]) is “A (an IC50 ratio greater than or equal to 10 fold)”.
